# Measured values: US7704995B2 (Exelixis, Inc., priority 2003, dated 2010)
# Molecular target: T1, Chk1 (Homo sapiens, UniProt O14757)
# T1 construct: purchased Upstate Biotechnology
# T1 sequence (O14757 1-476): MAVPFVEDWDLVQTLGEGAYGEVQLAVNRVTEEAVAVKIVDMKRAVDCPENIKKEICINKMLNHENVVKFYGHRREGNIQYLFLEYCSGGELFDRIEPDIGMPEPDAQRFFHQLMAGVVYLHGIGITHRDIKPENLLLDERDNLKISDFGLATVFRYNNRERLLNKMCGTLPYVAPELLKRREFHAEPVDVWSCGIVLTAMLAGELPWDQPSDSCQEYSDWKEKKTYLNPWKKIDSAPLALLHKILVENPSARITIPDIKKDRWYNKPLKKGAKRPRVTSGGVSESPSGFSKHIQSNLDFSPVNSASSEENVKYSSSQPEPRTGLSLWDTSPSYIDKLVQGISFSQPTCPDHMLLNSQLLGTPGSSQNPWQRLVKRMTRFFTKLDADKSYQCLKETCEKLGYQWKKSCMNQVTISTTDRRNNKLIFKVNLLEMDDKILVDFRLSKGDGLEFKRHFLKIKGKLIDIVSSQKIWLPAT
# Assay: Chk1 kinase assay: incorporation of γ-33P ATP into immobilized myelin basic protein
# Assay type: biochemical
# Conditions: Table 11, Chk1 only; class symbols A-D; read-out: Chk1 IC50
# Method in brief: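 Enzyme activity is measured as γ-33P transfer from ATP onto immobilized MBP over 1 h at room temperature, with Chk1 at 10 nM/10 μM unlabeled ATP and Chk2 at 20 nM/30 μM unlabeled ATP. Compounds are tested in 1% DMSO.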
row,Compound,IC50 [nM]
1,"Nc1ncc(-c2cccc(CNC(=O)Nc3ccc(F)cc3F)c2)nc1C(=O)N[C@H]1CCCNC1 [Example 914, 3-amino-6-{3-[({[(2,4-difluorophenyl)amino]carbonyl}amino)methyl]phenyl}-N-[(3S)-piperidin-3-yl]pyrazine-2-carboxamide]",< 50
2,"COCCNC(=O)c1cccc(-c2cnc(N)c(C(=O)N[C@H]3CCCNC3)n2)c1 [Example 879, 3-amino-6-[3-({[2-(methyloxy)ethyl]amino}carbonyl)phenyl]-N-[(3S)-piperidin-3-yl]pyrazine-2-carboxamide]",50 to 1000
3,"Nc1ncc(-c2cccc(NC(=O)c3cnc4ccccc4c3)c2)nc1C(=O)N[C@H]1CCCNC1 [Example 910, N-[3-(5-amino-6-{[(3S)-piperidin-3-ylamino]carbonyl}pyrazin-2-yl)phenyl]quinoline-3-carboxamide]",< 50
4,"Nc1ncc(-c2cccc(CNC(=O)c3ccc(OC(F)(F)F)cc3)c2)nc1C(=O)N[C@H]1CCCNC1 [Example 883, 3-amino-N-[(3S)-piperidin-3-yl]-6-(3-{[({4-[(trifluoromethyl)oxy]phenyl}carbonyl)amino]methyl}phenyl)pyrazine-2-carboxamide]",< 50
5,"Nc1ncc(-c2cccc(CNC(=O)c3ccc(Cl)cc3)c2)nc1C(=O)N[C@H]1CCCNC1 [Example 884, 3-amino-6-[3-({[(4-chlorophenyl)carbonyl]amino}methyl)phenyl]-N-[(3S)-piperidin-3-yl]pyrazine-2-carboxamide]",< 50
6,"Nc1ncc(-c2cccc(NC(=O)Cc3cc(F)ccc3F)c2)nc1C(=O)N[C@H]1CCCNC1 [Example 982, 3-amino-6-(3-{[(2,5-difluorophenyl)acetyl]amino}phenyl)-N-[(3S)-piperidin-3-yl]pyrazine-2-carboxamide]",< 50

# Second part, the compound after the results:
row,IC50 [nM],Compound
1,< 50,"Nc1ncc(-c2cccc(C(=O)NCc3ccc(-c4ccccc4)cc3)c2)nc1C(=O)N[C@H]1CCCNC1 [Example 844, 3-amino-6-(3-{[(biphenyl-4-ylmethyl)amino]carbonyl}phenyl)-N-[(3S)-piperidin-3-yl]pyrazine-2-carboxamide]"
2,< 50,"Nc1ncc(-c2cccc(C(=O)NCc3cccc(-c4ccccc4)c3)c2)nc1C(=O)N[C@H]1CCCNC1 [Example 1034, 3-amino-6-(3-{[(biphenyl-3-ylmethyl)amino]carbonyl}phenyl)-N-[(3S)-piperidin-3-yl]pyrazine-2-carboxamide]"

# Same assay, conditions: Table 11; Chk1 only; read-out: Chk1 IC50
row,Compound,IC50 [nM]
1,"CC(C)(C)OC(=O)N1CCC[C@@H](NC(=O)c2nc(-c3cccc(C(=O)N[C@H]4CCc5ccccc54)c3)cnc2N)C1 [Example 794, 1,1-dimethylethyl (3R)-3-({[3-amino-6-(3-{[(1S)-2,3-dihydro-1H-inden-1-ylamino]carbonyl}phenyl)pyrazin-2-yl]carbonyl}amino)piperidine-1-carboxylate]",1000 to 10000
2,"CNC(=O)c1nc(-c2cccc(CNC3CCc4cc(-c5cc(C)cs5)ccc43)c2)cnc1N (centres unmarked) [Example 496, 3-amino-N-methyl-6-[3-({[5-(4-methyl-2-thienyl)-2,3-dihydro-1H-inden-1-yl]amino}methyl)phenyl]pyrazine-2-carboxamide]",< 50
3,"CNC(=O)c1nc(-c2cccc(CNC3COc4ccccc43)c2)cnc1N (centres unmarked) [Example 507, 3-amino-6-{3-[(2,3-dihydro-1-benzofuran-3-ylamino)methyl]phenyl}-N-methylpyrazine-2-carboxamide]",50 to 1000
4,"CNC(=O)c1cc(-c2cccc(CNC3CCc4c(Cl)cccc43)c2)cnc1N (centres unmarked) [Example 522, 2-amino-5-(3-{[(4-chloro-2,3-dihydro-1H-inden-1-yl)amino]methyl}phenyl)-N-methylpyridine-3-carboxamide]",50 to 1000
5,"C=Cc1ccc(CNCc2cccc(-c3cnc(N)c(C(=O)NC)n3)c2)c(F)c1 [Example 458, 3-amino-6-[3-({[(4-ethenyl-2-fluorophenyl)methyl]amino}methyl)phenyl]-N-methylpyrazine-2-carboxamide]",50 to 1000
6,"CNC(=O)c1nc(-c2cc(C(=O)OC)cc(C(=O)OC)c2)cnc1N [Example 763, dimethyl 5-{5-amino-6-[(methylamino)carbonyl]pyrazin-2-yl}benzene-1,3-dicarboxylate]",1000 to 10000
7,"Nc1ncc(-c2cccc(C(=O)NCc3ccc(Cl)cc3)c2)nc1C(=O)N[C@H]1CCNC1 [Example 760, 3-amino-6-[3-({[(4-chlorophenyl)methyl]amino}carbonyl)phenyl]-N-[(3S)-pyrrolidin-3-yl]pyrazine-2-carboxamide]",< 50
8,"Nc1ncc(-c2cccc(C(=O)NCc3ccccc3)c2)nc1-c1nc(-c2ccccc2)n(-c2ccccn2)n1 [Example 792, 3-[5-amino-6-(5-phenyl-1-pyridin-2-yl-1H-1,2,4-triazol-3-yl)pyrazin-2-yl]-N-(phenylmethyl)benzamide]",1000 to 10000
9,"Nc1ncc(-c2cccc(C(=O)N[C@@H]3c4ccccc4C[C@@H]3O)c2)nc1C(=O)NC[C@H]1CCNC1 [Example 787, 3-amino-6-[3-({[(1R,2S)-2-hydroxy-2,3-dihydro-1H-inden-1-yl]amino}carbonyl)phenyl]-N-[(3S)-pyrrolidin-3-ylmethyl]pyrazine-2-carboxamide]",< 50

# Continued, values first:
row,IC50 [nM],Compound
1,50 to 1000,"Nc1ncc(-c2cccc(C(=O)NCc3ccccc3)c2)nc1C(=O)N[C@H]1CCN(Cc2ccccn2)C1 [Example 696, 3-amino-6-(3-{[(phenylmethyl)amino]carbonyl}phenyl)-N-[(3S)-1-(pyridin-2-ylmethyl)pyrrolidin-3-yl]pyrazine-2-carboxamide]"
2,≥ 10000,"C/C(=N\Nc1ccc(S(C)(=O)=O)cc1)c1nc(-c2cccc(C(=O)NCc3ccccc3)c2)cnc1N [Example 630, 3-(5-amino-6-{(1E)-N-[4-(methylsulfonyl)phenyl]ethanehydrazonoyl}pyrazin-2-yl)-N-(phenylmethyl)benzamide]"
3,1000 to 10000,"COc1ccc(N/N=C(\C)c2nc(-c3cccc(C(=O)NCc4ccccc4)c3)cnc2N)cc1 [Example 599, 3-(5-amino-6-{(1E)-N-[4-(methyloxy)phenyl]ethanehydrazonoyl}pyrazin-2-yl)-N-(phenylmethyl)benzamide]"

# Same assay, conditions: read-out: Chk1 IC50
row,Compound,IC50 [nM]
1,"CNC(=O)c1nc(-c2cncc(C(=O)NCc3c(F)cccc3F)c2)cnc1N [Example 400, 3-amino-6-[5-({[(2,6-difluorophenyl)methyl]amino}carbonyl)pyridin-3-yl]-N-methylpyrazine-2-carboxamide]",50 to 1000
2,"CNC(=O)c1nc(-c2cccc(OCCN3CCN(C)CC3)c2)cnc1N [Example 192, 3-amino-N-methyl-6-(3-{[2-(4-methylpiperazin-1-yl)ethyl]oxy}phenyl)pyrazine-2-carboxamide]",50 to 1000
3,"NC(=O)c1nc(-c2ccccc2)cnc1NCc1ccccc1 [Example 39, 6-phenyl-3-[(phenylmethyl)amino]pyrazine-2-carboxamide]",≥ 10000
4,"CNC(=O)c1nc(-c2cccc(C(=O)NCc3cc(F)c(F)c(F)c3)c2)cnc1N [Example 316, 3-amino-N-methyl-6-[3-({[(3,4,5-trifluorophenyl)methyl]amino}carbonyl)phenyl]pyrazine-2-carboxamide]",50 to 1000
5,"CNC(=O)c1nc(-c2cccc(C(=O)N3Cc4ccccc4C3)c2)cnc1N [Example 143, 3-amino-6-[3-(1,3-dihydro-2H-isoindol-2-ylcarbonyl)phenyl]-N-methylpyrazine-2-carboxamide]",1000 to 10000
6,"CNC(=O)c1nc(-c2cccc(CNC3Cc4ccccc4C3)c2)cnc1N [Example 415, 3-amino-6-{3-[(2,3-dihydro-1H-inden-2-ylamino)methyl]phenyl}-N-methylpyrazine-2-carboxamide]",< 50
7,"CNC(=O)c1nc(-c2cnc(N)c(C(=O)NC)n2)cnc1N [Example 266, 5,5′-diamino-N,N′-dimethyl-2,2′-bipyrazine-6,6′-dicarboxamide]",≥ 10000

# Next, values leading:
row,IC50 [nM],Compound
1,50 to 1000,"CNC(=O)c1nc(-c2cccc(NC(=O)c3ccc(OC)cc3)c2)cnc1N [Example 106, 3-amino-N-methyl-6-[3-({[4-(methyloxy)phenyl]carbonyl}amino)phenyl]pyrazine-2-carboxamide]"
2,1000 to 10000,"CC[C@H](NC(=O)c1cccc(-c2cnc(N)c(C(=O)NC)n2)c1)c1ccccc1 [Example 147, 3-amino-N-methyl-6-[3-({[(1S)-1-phenylpropyl]amino}carbonyl)phenyl]pyrazine-2-carboxamide]"
3,50 to 1000,"CNC(=O)c1nc(-c2cccc(C(=O)NCc3ccc(O)cc3)c2)cnc1N [Example 323, 3-amino-6-[3-({[(4-hydroxyphenyl)methyl]amino}carbonyl)phenyl]-N-methylpyrazine-2-carboxamide]"
4,50 to 1000,"CNC(=O)c1nc(-c2cccc(C(=O)NCc3cc(OC)ccc3OC)c2)cnc1N [Example 294, 3-amino-6-{3-[({[2,5-bis(methyloxy)phenyl]methyl}amino)carbonyl]phenyl}-N-methylpyrazine-2-carboxamide]"
5,50 to 1000,"CNC(=O)c1nc(-c2cccc(CNCc3ccc(-c4ccccc4)cc3)c2)cnc1N [Example 382, 3-amino-6-(3-{[(biphenyl-4-ylmethyl)amino]methyl}phenyl)-N-methylpyrazine-2-carboxamide]"
